The experiment concerns the target human σ2 receptor (TMEM97) (Homo sapiens, UniProt Q5BJF2). Description: biochemical. It is filed as Expi293 membranes. The note with it: read-out: % of control remaining.

Chain of human σ2 receptor (TMEM97) (Q5BJF2 whole entry): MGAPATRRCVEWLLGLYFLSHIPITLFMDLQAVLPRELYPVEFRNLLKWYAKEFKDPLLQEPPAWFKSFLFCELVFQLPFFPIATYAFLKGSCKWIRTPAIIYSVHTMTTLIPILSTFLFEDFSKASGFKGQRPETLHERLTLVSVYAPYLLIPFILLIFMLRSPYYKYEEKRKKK

`COc1ccc(C(=O)N2CC[C@H](N3CCCC3)[C@@H]2C)nc1Cl` [ZINC000805335094]: the remaining activity at 1 µM was found to be 133%.
Under `CN1CCN(CCNC(=O)C(=O)NC[C@H]2CCC=CO2)CC1(C)C` [ZINC000805503179] stands 105%; under `CC[C@@H](CN1CCCC1)NC(=O)C(=O)NC1COC(C)(C)OC1` [ZINC000806327364], 106%; under `Cc1ccc(N2CCN(C(=O)C(=O)N[C@@H]3CN(C4CC4)C[C@@H]3C)CC2)cc1` [ZINC000809405032], 99.4%.
Regarding `C[C@H](NC(=O)c1ccc2[nH]c(=O)c(=O)[nH]c2c1)[C@H](O)c1ccccc1` [ZINC000813849560], the remaining activity at 1 µM worked out at 108%.
Under `CC(C)(C)OC(=O)N1CCC[C@@](C)(CNC[C@@H](O)c2c(F)cccc2F)C1` [ZINC000819225653] stands 17.6%; under `C[C@H]1[C@H](N(C)C)CCN1c1snc(Cl)c1C#N` [ZINC000820594289], 104%; under `O=C([C@H](O)c1cccc([N+](=O)[O-])c1)N1CC[C@H](N2CCCC2)C1` [ZINC000825615260], 104%.
Under `CS[C@@H]1CCN(C[C@@H](O)c2ccccc2C(F)(F)F)C1` [ZINC000830877226] stands 78.8%; under `C[C@@H]1CCC[C@H](CCN2CCC([C@H](O)c3ncc[nH]3)CC2)C1` [ZINC000839577413], 28.7%; under `OC[C@@H](CNC[C@H](O)c1ccc(F)c(Br)c1)CC1CCCC1` [ZINC000843092160], 16.2%.
Under `Fc1ccc(C2OCCO2)c(Cl)c1CNC1CC2(CCC2)C1` [ZINC000846106280] stands 43.6%.
Consider `CN1CC[C@]2(CCN(C(=O)C(=O)Nc3cccc4nonc34)C2)C1` [ZINC000847525041], for which the remaining activity at 1 µM was found to be 59.3%.
Under `C[C@H]1CN/C(=N/CCCc2c(Cl)cccc2Cl)N1` [ZINC000849049798] stands 8.7%.
As to `CON(C)CCNC(=O)C(=O)Nc1ccc2c(c1)C(=O)N(C)C2=O` [ZINC000850493342], the remaining activity at 1 µM amounted to 136%.
Take `Fc1ccc(NC(=S)NC2CCN([C@H]3CCOC3)CC2)cc1` [ZINC000853031922]: the remaining activity at 1 µM came out at 115%.
Turning to `C[C@H](Nc1nc(N)nc(N)n1)c1ccccc1C(F)(F)F` [ZINC000858362097], the remaining activity at 1 µM is 142%.
Under `Cc1cc(N(C)C)ccc1CNC(=O)C(=O)NC[C@@H]1COCCN1` [ZINC000861751799] stands 106%.
Under `CCC1(N2CCOCC2)CCN(C(=O)C2=NN(C)C(=O)CC2)CC1` [ZINC000863492725] stands 179%; under `CN1CCN(C2CCN(c3nc(N)c4ccccc4n3)CC2)CC1` [ZINC000866213504], 204%; under `C[C@H]1CCC[C@H](NC(=O)C(=O)N2CCC(N3CCN(C)CC3)CC2)CC1` [ZINC000875242850], 76.2%.
With `O[C@@H](CN1CC[C@@H](c2ccccc2F)C1)CC1(O)CCCCC1` [ZINC000878084395], the remaining activity at 1 µM stood at 27.7%.
In the case of `NC(=O)C1(N2CCCCC2)CCN(CC(=O)NCC2CCC2)CC1` [ZINC000880249690], the remaining activity at 1 µM was 113%.
`C=CCC1(O)CCN([C@H](C)C(=O)N[C@@H](C)c2ccc(Cl)cc2)CC1` [ZINC000886762228]: the remaining activity at 1 µM was 110%.
Consider `Cc1cc(C(=O)CN2CC[C@@H]([C@H]3CCCO3)C2)c(C)n1C1CC1` [ZINC000886836194], for which the remaining activity at 1 µM is 24.1%.
On to `CO[C@@H]1CN(C(=O)NCc2ccnc(N3CCN(C)CC3)c2)CCO1` [ZINC000891830660], for which the remaining activity at 1 µM was found to be 116%.
As for `CC[C@H](CO)N1CCN(c2cc(Cl)c3cnn(C)c3n2)CC1` [ZINC000892713700], the remaining activity at 1 µM was determined as 99.5%.
Consider `Cc1cccc2sc(N3CCN(CCO)[C@H](C)C3)nc12` [ZINC000893277758], for which the remaining activity at 1 µM was found to be 95.1%.
As to `CC[C@@H](C)N1CCN(c2nc(N)nc(C(F)(F)C(F)(F)F)n2)CC1` [ZINC000894101819], the remaining activity at 1 µM stood at 35%.
Under `CCC(C)(C)N1CCN(c2nc(N)nc(C(F)(F)C(F)(F)F)n2)CC1` [ZINC000894427229] stands 38.7%; under `CCC(C)(C)N1CCN(c2cc(C(F)F)ncn2)CC1` [ZINC000894429059], 33.6%; under `C[C@@H]1CCCN1CCNC(=O)N1CCC[C@@H]1[C@@H]1CCCC[C@@]1(C)O` [ZINC000897504395], 90.9%.
Under `FC(F)(F)c1ccnc([C@H]2CCN(C[C@@H]3C[C@H]3c3ccccc3)C2)n1` [ZINC000897616680] stands 5.1%; under `O=C(CN[C@H]1CCNC12CCC2)NCCN1CCc2ccccc21` [ZINC000903470913], 92.2%; under `C[C@@H]1CN(C(=O)C2CN(C)CCN(C)C2)CC(C)(C)O1` [ZINC000906421824], 127%.
Under `CS(=O)(=O)N1CC(C(=O)N2CC(=O)N(CC(F)(F)F)C2)C1` [ZINC000907721339] stands 119%; under `Cc1ccc(NC(=O)C23CCC(CC2)N3)cc1[N+](=O)[O-]` [ZINC000911907143], 93.1%.
Take `CC(C)(CN1C(=O)N2CCC[C@@H]3C[C@@]32C1=O)N1CCc2ccccc2C1` [ZINC000924470947]: the remaining activity at 1 µM worked out at 45.5%.
Under `CCn1ncc2c1CCC[C@@H]2N[C@@H](C)Cc1ccccn1` [ZINC000925887162] stands 27.4%.
Under `O=C1CCCCN1C1CCN(C[C@H](O)C[C@]2(O)CCOC2)CC1` [ZINC000929842198] stands 104%.
Under `O=C1[C@@H](N2CC[C@@H](C3OCCO3)C2)CCN1c1cccc(Br)c1` [ZINC000932000298] stands 75.9%; under `CCOC(=O)[C@@H]1CCN(C[C@@H](O)COc2cccc(C)c2)C1` [ZINC000932649435], 69.5%.
Consider `Cc1csc2nc(CN[C@](C)(CO)Cc3ccc(F)cc3)cc(=O)n12` [ZINC000933438523], for which the remaining activity at 1 µM amounted to 28.1%.
As to `O[C@H](CN1CC[C@@H](Cc2nccs2)C1)c1c(F)cccc1F` [ZINC000934332177], the remaining activity at 1 µM turned out to be 34%.
With `C[C@H]1CCCN1CC(=O)N(C)[C@H]1CCN(C(=O)C2CCOCC2)C1` [ZINC000936344871], the remaining activity at 1 µM was determined as 82.7%.
In the case of `C[C@H]1CCCN1CC(=O)N(C)[C@H]1CCN(C(=O)CC(C)(C)O)C1` [ZINC000937267298], the remaining activity at 1 µM was found to be 111%.
Regarding `Cc1nc(C)c(CC(=O)N2CC[C@H](NC(=O)c3cnn[nH]3)C2)c(O)n1` [ZINC000938242679], the remaining activity at 1 µM was found to be 107%.
Under `Cc1cc(NC(=O)C(=O)N2CC[C@@H](NC(=O)c3cncn3C)C2)no1` [ZINC000941361883] stands 111%.
Under `Cn1nc(C(=O)N[C@@H]2CCN(C(=O)Cc3cscn3)C2)ccc1=O` [ZINC000942457739] stands 89.4%.
As for `CCN1CC[C@@H](NC(=O)c2ccnc(-n3cncn3)c2)C[C@@H]1C` [ZINC000948091407], the remaining activity at 1 µM came out at 112%.
Consider `Cc1cc(C)nc(C(=O)N2CC[C@H]2CNC(=O)[C@@H]2CCN(C)C2)c1` [ZINC000950078544], for which the remaining activity at 1 µM amounted to 108%.
Under `CN(C(=O)c1cccnn1)C1CN(C(=O)[C@H]2CCC[C@H]3CCCN32)C1` [ZINC000955102158] stands 111%; under `CN(C(=O)c1c[nH]c(=O)cn1)C1CN(C(=O)c2n[nH]c3c2CCC3)C1` [ZINC000955144887], 96.9%.
Turning to `CCC(=O)N1CCN([C@H]2CCN(C(=O)c3c[nH]c(=O)cn3)C2)CC1` [ZINC000956566890], the remaining activity at 1 µM amounted to 112%.
Regarding `O=C(C1CCCC1)N1CCC[C@H]([C@@H]2CCN(C/C=C\Cl)C2)C1` [ZINC000961091031], the remaining activity at 1 µM amounted to 33%.
Under `Cc1c(C(=O)N[C@@H]2CN(C(=O)C3=COCCC3)C[C@@H]2O)cnn1C` [ZINC000961583379] stands 91.1%; under `O=C([C@H]1CCOC1)N1CCOC2(C1)CN(C(=O)[C@@]1(F)CCOC1)C2` [ZINC000965338365], 99.1%.
Under `CCc1c(C(=O)N[C@@H]2CN(C(=O)c3n[nH]cc3C)C[C@@H]2O)cnn1C` [ZINC000968717635] stands 94.6%; under `COc1ccc(C(=O)N[C@@H]2CN(C(=O)C3(C)CCC3)C[C@@H]2O)nn1` [ZINC000970553575], 92.8%.
Take `Cc1cc(C(=O)N2CC[C@H](N(C)Cc3ccc(C)c(C)c3)C2)on1` [ZINC000971070823]: the remaining activity at 1 µM was 90.9%.
Under `CN(C[C@H]1CCCCO1)[C@@H]1CCN(C(=O)c2nc(Cl)cs2)C1` [ZINC000972168981] stands 63.4%.
Turning to `COCCN1C[C@H](C(=O)N[C@H]2C[C@H](NC(=O)c3cn[nH]c3)C2)CC1=O` [ZINC000973057271], the remaining activity at 1 µM stood at 111%.
Under `C[C@@H]1CCN(CC(=O)N[C@H]2C[C@H](NC(=O)c3cnnc(O)c3)C2)C1` [ZINC000973375109] stands 111%; under `Cn1nncc1C(=O)NC[C@H]1CC[C@@H](NC(=O)c2cnns2)C1` [ZINC000981250423], 97.2%; under `O=C(C1CC2(CCC2)C1)N1CCCN(C[C@@H](O)c2ccccc2)CC1` [ZINC000981787500], 48.4%.
Under `CC(C)=CC(=O)N1CC[C@@H](CNC(=O)c2ccn(CCN(C)C)n2)C1` [ZINC000982403760] stands 104%.
Under `CCn1ncnc1CN1CCCN(C(=O)C[C@H]2CC(=O)NC2=O)CC1` [ZINC000989806749] stands 118%.
With `CCc1noc(C)c1C(=O)NC1CN(C(=O)[C@H]2CCCCN2C)C1` [ZINC000991393621], the remaining activity at 1 µM turned out to be 116%.
On to `Cc1c(C(=O)NC2CN(C(=O)c3cnns3)C2)ccc2cncn12` [ZINC000995014137], for which the remaining activity at 1 µM amounted to 123%.
Consider `CN1CC[C@H](C(=O)NC2CN(C(=O)Cc3ccc(F)cn3)C2)CC1=O` [ZINC000995125582], for which the remaining activity at 1 µM was determined as 102%.
